For test [1], the system named is aminopeptidase activity in human plasma sample. Briefly: Enzyme activity assay in microdevice with human plasma, aminopeptidase probes. Format: biochemical. The following applies: 50 μM probe, human plasma 20,000 fold dilution, 37° C. for 2 hours. On the procedure:
• 1. Ala-sHMRG as a fluorescent probe for detecting aminopeptidase activity was diluted with an assay buffer to 100 μM. The composition of the assay buffer is 100 mM HEPES-NaOH (pH 7.4), 1 mM MgCl2, 0.1% BSA, 1 mM DTT, 1 mM Triton X-100, • 2. Next, a human plasma sample was diluted by 500 times with the above assay buffer, and mixed in an equal amount with the diluted solution of the probe. At this time, the final concentrations of both are 50 μM for Ala-sHMRG and 1,000 fold dilution for the human plasma sample. • 3. The mixed solution of both was then added to a microdevice, followed by the addition of sealing oil to enclose the solution in each well. • 4. The microdevice in which the solution was enclosed was incubated at 37° C. for 4 hours, and then the fluorescence intensity of each well was measured with a fluorescence microscope.
• 1. Leu-sHMRG as a fluorescent probe for detecting aminopeptidase activity was diluted with an assay buffer to 100 μM. The composition of the assay buffer is 100 mM HEPES-NaOH (pH 7.4), 1 mM MgCl2, 1 mM DTT, 3 mM Triton X-100. • 2. Next, a human plasma sample was diluted by 2,500 times with the above assay buffer, and mixed in an equal amount with the diluted solution of the probe. At this time, the final concentrations of both are 50 μM for Leu-sHMRG and 5,000 fold dilution for the human plasma sample. • 3. The mixed solution of both was then added to a microdevice, followed by the addition of sealing oil to enclose the solution in each well. • 4. The microdevice in which the solution was enclosed was incubated at 37° C. for 4 hours, and then the fluorescence intensity of each well was measured with a fluorescence microscope.
(§1) • 5. Met-sHMRG as a fluorescent probe for detecting aminopeptidase activity was diluted with an assay buffer to 100 μM. The composition of the assay buffer is 100 mM HEPES-NaOH (pH 7.4), 1 mM MgCl2, 1 mM CaCl2, 1 mM DTT, 3 mM Triton X-100. • 6. Next, a human plasma sample was diluted by 500 times with the above assay buffer, and mixed in an equal amount with the diluted solution of the probe. At this time, the final concentrations of both are 50 μM for Met-sHMRG and 1,000 fold dilution for the human plasma sample. • 7. The mixed solution of both was then added to a microdevice, followed by the addition of sealing oil to enclose the solution in each well. • 8. The microdevice in which the solution was enclosed was incubated at 37° C. for 2 hours, and then the fluorescence intensity of each well was measured with a fluorescence microscope.
as §1, with “• 9. Tyr-sHMRG” for “• 5. Met-sHMRG”, “• 10.” for “• 6.”, “for Tyr-sHMRG” for “for Met-sHMRG”, “• 11.” for “• 7.”, “• 12.” for “• 8.”, “for 4” for “for 2”
• 1. Lys-sHMRG as a fluorescent probe for detecting aminopeptidase activity was diluted with an assay buffer to 100 μM. The composition of the assay buffer is 100 mM HEPES-NaOH (pH 7.4), 1 mM MgCl2, 1 mM CaCl2, 1 mM DTT, 3 mM Triton X-100. • 2. Next, a human plasma sample was diluted by 10,000 times with the above assay buffer, and mixed in an equal amount with the diluted solution of the probe. At this time, the final concentrations of both are 50 μM for Lys-sHMRG and 20,000 fold dilution for the human plasma sample. • 3. […]

Test [2] relates to CD13. In words: Diagnostic experiment of pancreatic cancer utilizing single-molecule enzyme activity of CD13. In kind it is biochemical, human. The following applies: patients with pancreatic cancer compared with healthy subjects; 50 μM probe, plasma 20,000 fold dilution, 37° C. 2 hours. As for the experimental part:
In order to detect the single-molecule enzyme activity of CD13, an experiment to verify the availability of a probe to which […] is bonded as a reaction point (in General Formula (I) or (II), an alanine residue was introduced as —CO—R0 or —CO—R^10) to detect a pancreatic cancer biomarker was performed in the following procedures. • 1. Ala-sSiR as a CD13 detecting probe was diluted with an assay buffer to 100 μM. The composition of the assay buffer is 100 mM HEPES-NaOH (pH 7.4), 1 mM MgCl2, 1 mM CaCl2), 1 mM DTT, 3 mM Triton X-100. • 2. Next, human plasma samples collected from 30 patients with pancreatic cancer and 30 healthy subjects were each diluted by 10,000 times with the above assay buffer, and mixed in an equal amount with the diluted solution of Ala-sSiR. […] The microdevice in which the solution was enclosed was incubated at 37° C. for 2 hours, and then the fluorescence intensity of each well was measured with a fluorescence microscope.
Specifically, in this example, an ROC curve for determination based on the enzyme activity of CD13 determined based on the proportion of wells with a luminance of 2500 AU or more is created, and when a threshold is subtracted at the time when the number of wells of a signal is 3%, the sensitivity is 27% and the specificity is 100% (the right view of FIG. 3). […]

In test [3] the test system is protease activity in human plasma sample. Briefly: Enzyme activity assay in microdevice with human plasma, protease probes. Format: biochemical. On the procedure: • 1. Suc-AAPA-sHMRG as a fluorescent probe for detecting protease activity was diluted with an assay buffer to 200 μM. The composition of the assay buffer is 100 mM HEPES-NaOH (pH 7.4), 1 mM MgCl2, 1 mM CaCl2, 1 mM DTT, 3 mM Triton X-100. • 2. Next, a human plasma sample was diluted by 250 times with the above assay buffer, and mixed in an equal amount with the diluted solution of the probe. At this time, the final concentrations of both are 100 μM for Suc-AAPA-sHMRG and 500 fold dilution for the human plasma sample. • 3. The mixed solution of both was then added to a microdevice, followed by the addition of sealing oil to enclose the solution in each well. • 4. The microdevice in which the solution was enclosed was incubated at 37° C. for 4 hours, and then the fluorescence intensity of each well was measured with a fluorescence microscope.
• 1. Ac-LRGG-sSiR as a fluorescent probe for detecting protease activity was diluted with an assay buffer to 100 μM. The composition of the assay buffer is 100 mM HEPES-NaOH (pH 7.4), 1 mM MgCl2, 1 mM CaCl2, 1 mM DTT, 3 mM Triton X-100. • 2. Next, a human plasma sample was diluted by 10,000 times with the above assay buffer, and mixed in an equal amount with the diluted solution of the probe. At this time, the final concentrations of both are 50 μM for Ac-LRGG-sSiR and 20,000 fold dilution for the human plasma sample. • 3. The mixed solution of both was then added to a microdevice, followed by the addition of sealing oil to enclose the solution in each well. • 4. The microdevice in which the solution was enclosed was incubated at 37° C. for 2 hours, and then the fluorescence intensity of each well was measured with a fluorescence microscope.
• 1. EP-sSiR as a fluorescent probe for detecting protease activity was diluted with an assay buffer to 60 μM. […] The microdevice in which the solution was enclosed was incubated at 25° C. for 2 hours, and then the fluorescence intensity of each well was measured with a fluorescence microscope.

SMILES strings stand for the structures. Numbered stars: 1 amine (or outer) side, 2 acyl side, 3 side chain; on linkers, the order of the positions; unused ones are H or OH. Square brackets hold non-standard residues; d marks the D form. Peptide text beside a SMILES is read from it. * marks the point of attachment. X2 = Cc1ccc(S(=O)(=O)O)cc1C1=C2C=CC(=N)C=C2[Si](C)(C)c2cc(N*)ccc21; X1 = Nc1ccc2c(c1)Oc1cc(N*)ccc1C21OCc2cc(S(=O)(=O)O)ccc21; Suc = O=C(CCC(=O)[*:2])[*:1]

For `Cc1ccc(S(=O)(=O)O)cc1C1=C2C=CC(=N)C=C2[Si](C)(C)c2cc(NC(=O)[C@H](C)N)ccc21` [Ala-sSiR], the “fluorescence intensity of wells in which the reacting enzyme was enclosed” value (from here on “fluorescence intensity of wells”) in test [1] is “increase in fluorescence intensity was observed”. Also, in test [2], the “number of wells in which the luminance is 2,500 AU or more (CD13 considered enclosed)” value was “significant increase”.

In the case of `C[C@H](NC(=O)CCC(=O)O)C(=O)N[C@@H](C)C(=O)N1CCC[C@@H]1C(=O)N[C@@H](C)C(=O)Nc1ccc2c(c1)Oc1cc(N)ccc1C21OCc2cc(S(=O)(=O)O)ccc21` (some centres unmarked) [Suc-AAPA-sHMRG] (Suc-AA[dP]A-X1), the “fluorescence intensity of wells” value in test [3] (100 μM probe, human plasma 500 fold dilution, 37° C. for 4 hours) is listed as “increase in fluorescence intensity was observed”.

As to `CC(=O)N[C@@H](CC(C)C)C(=O)N[C@H](CCCNC(=N)N)C(=O)NCC(=O)NCC(=O)Nc1ccc2c(c1)[Si](C)(C)C1=CC(=N)C=CC1=C2c1cc(S(=O)(=O)O)ccc1C` [Ac-LRGG-sSiR] (Ac-L[dR]GG-X2), in test [3] (50 μM probe, human plasma 20,000 fold dilution, 37° C. for 2 hours), the “fluorescence intensity of wells” value is reported as “increase in fluorescence intensity was observed”.

In the case of `Cc1ccc(S(=O)(=O)O)cc1C1=C2C=CC(=N)C=C2[Si](C)(C)c2cc(NC(=O)C3CCCN3C(=O)[C@@H](N)CCC(=O)O)ccc21` (some centres unmarked) [EP-sSiR], the “fluorescence intensity of wells” value in test [3] (30 μM probe, human plasma 5,000 fold dilution, 25° C. for 2 hours) is listed as “increase in fluorescence intensity was observed”.

The values are drawn from patent publication US20250313879A1, “Fluorescent Probe for Detecting Peptide Bond Hydrolase” (The University of Tokyo, priority 2022, published 2025).
